ChEMBL document CHEMBL5370623, “Discovery of Quinazoline-2,4(1H,3H)-dione Derivatives Containing a Piperizinone Moiety as Potent PARP-1/2 Inhibitors─Design, Synthesis, In Vivo Antitumor Activity, and X-ray Crystal Structure Analysis” (J Med Chem, 2023)
Values after ≈ are worked out from the molar mass of the structure shown. Active and inactive are the calls of the source. The rule behind the calls is not given here.

Assays:
[1] = molecular target: Poly [ADP-ribose] polymerase 2 (Homo sapiens, UniProt Q9UGN5); experiment: Inhibition of human recombinant PARP2 expressed in Escherichia coli BL21(DE3) incubated for 1 hr by ELISA assay
MX1 [2] = experiment: Potentiation factor, ratio of IC50 for cytotoxicity against human MX1 cells to IC50 for cytotoxicity against human MX1 cells in presence of temozolomide; assay type: functional
MX1 [3] = experiment: Cytotoxicity against human MX1 cells […] assessed as inhibition of cell growth measured after 72 hrs by MTT assay; assay type: functional, cell-based; conditions: MX1, 72 h
[4] = molecular target: T1, Poly [ADP-ribose] polymerase 1 (Homo sapiens, UniProt P09874); experiment: Inhibition of human recombinant PARP1 expressed in Escherichia coli BL21(DE3) incubated for 1 hr by ELISA assay
[5] = Half life in BALB/c mouse at 25 mg/kg, po measured upto 24 hrs by LC-MS/MS analysis; assay type: ADME, organism-based; conditions: in vivo
[6] = AUC (0 to t) in BALB/c mouse at 25 mg/kg, po measured upto 24 hrs by LC-MS/MS analysis; assay type: ADME, organism-based; design: time < 24 hrs, dose 25 mg/kg, route po; conditions: in vivo
[7] = Tmax in BALB/c mouse at 25 mg/kg, po measured upto 24 hrs by LC-MS/MS analysis; assay type: ADME, organism-based; conditions: in vivo
[8] = MRT (0 to t) in BALB/c mouse at 25 mg/kg, po measured upto 24 hrs by LC-MS/MS analysis; assay type: ADME, organism-based; conditions: in vivo
[9] = AUC (0 to infinity) in BALB/c mouse at 25 mg/kg, po measured upto 24 hrs by LC-MS/MS analysis; assay type: ADME, organism-based; design: dose 25 mg/kg, time < 24 hrs, route po; conditions: in vivo
[10] = MRT (0 to infinity) in BALB/c mouse at 25 mg/kg, po measured upto 24 hrs by LC-MS/MS analysis; assay type: ADME, organism-based; conditions: in vivo
[11] = Aqueous solubility of the compound; assay type: physicochemical
[12] = Cmax in BALB/c mouse at 25 mg/kg, po measured upto 24 hrs by LC-MS/MS analysis; assay type: ADME, organism-based; design: time < 24 hrs, dose 25 mg/kg, route po; conditions: in vivo
[13] = molecular target: T1, Poly [ADP-ribose] polymerase 1; experiment: Inhibition of human PARP1 in human MX1 cells assessed as enzyme-DNA trapping activity at 1 uM incubated for 24 hrs by Western blot analysis; assay type: cell-based

T1 sequence (P09874 whole entry): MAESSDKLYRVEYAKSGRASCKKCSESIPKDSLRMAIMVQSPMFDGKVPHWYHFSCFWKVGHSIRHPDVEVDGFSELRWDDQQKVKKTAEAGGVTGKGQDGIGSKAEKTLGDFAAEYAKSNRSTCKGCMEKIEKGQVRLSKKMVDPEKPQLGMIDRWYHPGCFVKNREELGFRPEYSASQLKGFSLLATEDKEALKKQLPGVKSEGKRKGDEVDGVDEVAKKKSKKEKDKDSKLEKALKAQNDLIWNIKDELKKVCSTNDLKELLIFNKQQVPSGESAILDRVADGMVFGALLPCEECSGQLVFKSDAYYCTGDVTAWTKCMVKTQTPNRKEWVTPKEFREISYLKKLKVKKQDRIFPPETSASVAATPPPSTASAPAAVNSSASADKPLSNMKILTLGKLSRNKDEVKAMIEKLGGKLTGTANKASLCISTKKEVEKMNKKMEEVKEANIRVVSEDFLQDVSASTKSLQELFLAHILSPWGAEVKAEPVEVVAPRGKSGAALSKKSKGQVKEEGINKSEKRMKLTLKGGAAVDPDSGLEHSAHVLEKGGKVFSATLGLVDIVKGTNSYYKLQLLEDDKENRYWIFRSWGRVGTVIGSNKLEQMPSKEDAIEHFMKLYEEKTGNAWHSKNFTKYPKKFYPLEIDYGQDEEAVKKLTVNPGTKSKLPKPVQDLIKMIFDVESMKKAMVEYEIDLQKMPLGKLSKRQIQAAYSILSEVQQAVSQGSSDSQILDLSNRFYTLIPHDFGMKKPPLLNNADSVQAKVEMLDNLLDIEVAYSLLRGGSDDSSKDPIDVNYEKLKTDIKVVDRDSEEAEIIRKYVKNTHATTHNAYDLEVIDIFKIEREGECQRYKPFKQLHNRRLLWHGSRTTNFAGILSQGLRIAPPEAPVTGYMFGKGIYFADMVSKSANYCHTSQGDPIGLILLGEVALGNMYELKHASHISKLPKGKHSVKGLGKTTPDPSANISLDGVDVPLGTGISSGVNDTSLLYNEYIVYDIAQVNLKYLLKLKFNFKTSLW
Poly [ADP-ribose] polymerase 2, sequence (Q9UGN5 whole entry): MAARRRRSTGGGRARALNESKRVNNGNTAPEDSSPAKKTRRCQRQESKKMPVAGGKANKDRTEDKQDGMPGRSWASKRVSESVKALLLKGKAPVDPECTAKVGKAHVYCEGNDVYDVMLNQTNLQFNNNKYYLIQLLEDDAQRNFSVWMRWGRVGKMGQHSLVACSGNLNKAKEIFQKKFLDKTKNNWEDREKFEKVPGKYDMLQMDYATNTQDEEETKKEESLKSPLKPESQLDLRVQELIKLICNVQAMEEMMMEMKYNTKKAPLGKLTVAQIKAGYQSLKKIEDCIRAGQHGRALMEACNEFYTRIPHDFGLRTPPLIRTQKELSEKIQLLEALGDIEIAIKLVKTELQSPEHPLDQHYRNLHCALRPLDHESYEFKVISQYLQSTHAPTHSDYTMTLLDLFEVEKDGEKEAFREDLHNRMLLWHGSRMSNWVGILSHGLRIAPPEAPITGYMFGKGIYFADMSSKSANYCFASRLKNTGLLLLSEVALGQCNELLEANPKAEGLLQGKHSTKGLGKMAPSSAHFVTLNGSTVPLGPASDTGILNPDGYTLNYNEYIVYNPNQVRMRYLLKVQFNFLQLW

SMILES | IC50 [1] | IC50 [4] | PARP1-DNA trapping activity [13] | PF50 (MX1 [2]) | IC50 (MX1 [3]) | also measured
C#CCN1CCN(C(=O)c2cc(Cn3c(=O)[nH]c(=O)c4ccccc43)ccc2F)CC1=O | 2.92 nM | 15.5 nM | – | >10 | 28.5 nM | –
O=C(c1cc(Cn2c(=O)[nH]c(=O)c3ccccc32)ccc1F)N1CC(=O)N2CCCC2C1 (configuration not stated) | 9.2 nM | 17.2 nM | – | >10 | 46.1 nM | –
CN1CCN(C(=O)c2cc(Cn3c(=O)[nH]c(=O)c4ccccc43)ccc2F)CC1=O | 5.62 nM | 3.81 nM | – | 1.18 | 51 nM | –
CC(C)=CCN1CCN(C(=O)c2cc(Cn3c(=O)[nH]c(=O)c4ccccc43)ccc2F)CC1=O | 2.35 nM | 9.85 nM | Active | >10 | 6.54 nM | –
CC(C)C(C)N1CCN(C(=O)c2cc(Cn3c(=O)[nH]c(=O)c4ccccc43)ccc2F)CC1=O (configuration not stated) | 1.86 nM | 9 nM | Active | >10 | 1.67 nM | –
COC(=O)CN1CCN(C(=O)c2cc(Cn3c(=O)[nH]c(=O)c4ccccc43)ccc2F)CC1=O | 2.67 nM | 8.88 nM | – | 4.64 | 45 nM | –
O=C1CN(C(=O)c2cc(Cn3c(=O)[nH]c(=O)c4ccccc43)ccc2F)CCN1CC(F)(F)F | 1.87 nM | 3.79 nM | – | >10 | 18.6 nM | –
O=C1CN(C(=O)c2cc(Cn3c(=O)[nH]c(=O)c4ccccc43)ccc2F)CCN1 | 1.88 nM | 4.33 nM | – | 3.23 | > 100 nM | –
O=C1CN(C(=O)c2cc(Cn3c(=O)[nH]c(=O)c4ccccc43)ccc2F)CCN1CC1CC1 | 2.63 nM | 9.75 nM | – | >10 | 14.9 nM | –
O=C1CN(C(=O)c2cc(Cn3c(=O)[nH]c(=O)c4ccccc43)ccc2F)CCN1CCCO | 6.31 nM | 17.1 nM | – | 4.38 | 60.2 nM | –
CN(C)CCN1CCN(C(=O)c2cc(Cn3c(=O)[nH]c(=O)c4ccccc43)ccc2F)CC1=O | 6.75 nM | 2.39 nM | – | – | > 100 nM | –
CCCN1CCN(C(=O)c2cc(Cn3c(=O)[nH]c(=O)c4ccccc43)ccc2F)CC1=O | 3.48 nM | 11.8 nM | – | >10 | 16.5 nM | –
O=C(c1cc(Cn2c(=O)[nH]c(=O)c3ccccc32)ccc1F)N1CC(=O)N2CCCCC2C1 (configuration not stated) | 3.41 nM | 9.85 nM | – | >10 | 32.6 nM | –
O=C1CN(C(=O)c2cc(Cn3c(=O)[nH]c(=O)c4ccccc43)ccc2F)CCN1CCC1CC1 | 2.15 nM | 2.08 nM | Active | >10 | 4.15 nM | –

Molecules with a lower IC50 [1], results first:

IC50 [1] | IC50 [4] | PARP1-DNA trapping activity [13] | SMILES | PF50 (MX1 [2]) | IC50 (MX1 [3]) | also measured
0.79 nM | 3.86 nM | – | CCC(CC)N1CCN(C(=O)c2cc(Cn3c(=O)[nH]c(=O)c4ccccc43)ccc2F)CC1=O | >10 | 0.65 nM | half-life [5]: 30.6 min; AUC(0-t) at 24 h [6]: 316 ng·h/mL; Tmax [7]: 4.8 min; MRT last at 24 h [8]: 32.4 min; AUC(0-inf) [9]: 340 ng·h/mL; MRT inf [10]: 42 min; solubility [11]: 30.4 µg/mL (≈ 65.1 µM); Cmax [12]: 515 ng/mL
0.38 nM | 4.68 nM | – | CC(C)CN1CCN(C(=O)c2cc(Cn3c(=O)[nH]c(=O)c4ccccc43)ccc2F)CC1=O | >10 | 22.4 nM | –
0.92 nM | 3.03 nM | – | CC(C)CCN1CCN(C(=O)c2cc(Cn3c(=O)[nH]c(=O)c4ccccc43)ccc2F)CC1=O | >10 | 12.4 nM | –
0.24 nM | 2.38 nM | Active | O=C1CN(C(=O)c2cc(Cn3c(=O)[nH]c(=O)c4ccccc43)ccc2F)CCN1CC1CCCCC1 | >10 | 9.39 nM | –
0.33 nM | 3.45 nM | – | CC(C)(C)CN1CCN(C(=O)c2cc(Cn3c(=O)[nH]c(=O)c4ccccc43)ccc2F)CC1=O | >10 | 23.2 nM | –
0.33 nM | 2.85 nM | – | O=C(c1cc(Cn2c(=O)[nH]c(=O)c3ccccc32)ccc1F)N1CCN(C2CCCCC2)C(=O)C1 | >10 | 5.79 nM | –
0.62 nM | 1.02 nM | Active | O=C(c1cc(Cn2c(=O)[nH]c(=O)c3ccccc32)ccc1F)N1CCN(c2ccccc2)C(=O)C1 | >10 | 4.88 nM | –
0.83 nM | 4.86 nM | Active | COCCN1CCN(C(=O)c2cc(Cn3c(=O)[nH]c(=O)c4ccccc43)ccc2F)CC1=O | – | 61.3 nM | –
0.44 nM | 3.76 nM | – | CCC(C)N1CCN(C(=O)c2cc(Cn3c(=O)[nH]c(=O)c4ccccc43)ccc2F)CC1=O (configuration not stated) | >10 | 33.9 nM | –
1.32 nM | 3.02 nM | – | CCC(C)CN1CCN(C(=O)c2cc(Cn3c(=O)[nH]c(=O)c4ccccc43)ccc2F)CC1=O (configuration not stated) | >10 | 10.4 nM | –
0.77 nM | 2.54 nM | Active | O=C1CN(C(=O)c2cc(Cn3c(=O)[nH]c(=O)c4ccccc43)ccc2F)CCN1Cc1ccccc1 | >10 | 3.12 nM | –
1.22 nM | 7.59 nM | – | CCN1CCN(C(=O)c2cc(Cn3c(=O)[nH]c(=O)c4ccccc43)ccc2F)CC1=O | >10 | 23.3 nM | –
0.49 nM | 2.72 nM | – | CCCCN1CCN(C(=O)c2cc(Cn3c(=O)[nH]c(=O)c4ccccc43)ccc2F)CC1=O | >10 | 20 nM | –
0.1 nM | 2.46 nM | Active | O=C1CN(C(=O)c2cc(Cn3c(=O)[nH]c(=O)c4ccccc43)ccc2F)CCN1CC1CCCC1 | >10 | 23.2 nM | –
0.94 nM | 2.71 nM | Active | CCCCCN1CCN(C(=O)c2cc(Cn3c(=O)[nH]c(=O)c4ccccc43)ccc2F)CC1=O | >10 | 331 nM | –
1.72 nM | 5.06 nM | – | CC(C)N1CCN(C(=O)c2cc(Cn3c(=O)[nH]c(=O)c4ccccc43)ccc2F)CC1=O | >10 | 30.9 nM | –
0.22 nM | 3.67 nM | Active | CC(C1CCCC1)N1CCN(C(=O)c2cc(Cn3c(=O)[nH]c(=O)c4ccccc43)ccc2F)CC1=O (configuration not stated) | >10 | 1.18 nM | –
0.71 nM | 4.18 nM | – | C=CCN1CCN(C(=O)c2cc(Cn3c(=O)[nH]c(=O)c4ccccc43)ccc2F)CC1=O | – | > 100 nM | –
0.26 nM | 4.92 nM | – | CC(C1CCCCC1)N1CCN(C(=O)c2cc(Cn3c(=O)[nH]c(=O)c4ccccc43)ccc2F)CC1=O (configuration not stated) | >10 | 3.65 nM | –
0.29 nM | 1.4 nM | Active | O=C(c1cc(Cn2c(=O)[nH]c(=O)c3ccccc32)ccc1F)N1CCN(C2CCCC2)C(=O)C1 | >10 | 13.2 nM | –
